Results taken from US9504701B2, “Methods for treating viral infections using hydrogen sulfide donors” (THE BOARD OF REGENTS OF THE UNIVERSITY OF TEXAS SYSTEM, priority 2014, dated 2016).

What was measured:
[1] = tested on: A549 cells infected with RSV; format: cell-based, human
RSV = RSV replication in A549 cells, viral titers by plaque assay; format: cell-based, RSV Long strain; conditions: PAG 20 or 40 mM, 24 h p.i.

C#CCC(N)C(=O)O (racemic) [PAG, DL-propargylglycin]
basal cellular mediator secretion (uninfected cells): no effect
uninfected-cell viability (trypan blue exclusion) (uninfected cells): no effect
levels of production of several cytokines and chemokines in response to RSV infection [1]: significantly increased
increase in viral infectious-particle formation (plaque assay) (RSV): 3- to 4 fold
